The values that follow come from ChEMBL document CHEMBL4334520, “Nonadride and Spirocyclic Anhydride Derivatives from the Plant Endophytic Fungus Talaromyces purpurogenus” (J Nat Prod, 2019).

Series [1] deals with T1, Tyrosine-protein phosphatase non-receptor type 1 (Homo sapiens) (UniProt P18031).
T1 sequence (whole entry): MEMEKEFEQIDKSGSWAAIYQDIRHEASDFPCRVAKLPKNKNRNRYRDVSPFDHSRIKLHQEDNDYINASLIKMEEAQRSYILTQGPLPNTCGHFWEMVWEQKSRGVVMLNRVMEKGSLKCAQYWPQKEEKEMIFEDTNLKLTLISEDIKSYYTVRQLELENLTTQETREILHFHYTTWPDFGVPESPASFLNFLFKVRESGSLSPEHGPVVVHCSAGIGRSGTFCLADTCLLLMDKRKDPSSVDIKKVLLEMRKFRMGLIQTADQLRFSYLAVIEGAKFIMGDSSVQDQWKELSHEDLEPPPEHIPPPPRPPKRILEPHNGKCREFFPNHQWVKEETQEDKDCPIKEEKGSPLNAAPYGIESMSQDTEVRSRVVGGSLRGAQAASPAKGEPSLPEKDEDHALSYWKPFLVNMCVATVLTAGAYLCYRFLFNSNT
The series is described as follows: Inhibition of recombinant human PTP1B expressed in Escherichia coli BL21 at 10 uM using […] as substrate […] for 5 mins followed by substrate addition measured after 10 mins relative to control.

Series [2] has as its system RAW264.7. The series is described as follows: Anti-inflammatory activity in mouse RAW264.7 cells assessed as inhibition of LPS-induced NO production pretreated with compounds followed by LPS stimulation incubated for 24 hrs by Griess assay. It is filed as functional, cell-based. A general note: Nitrite, measured by Griess reagent, commonly stands in for NO production.

The subject of series [3] is RAW264.7. Nature of the series: Growth inhibition of mouse RAW264.7 cells relative to control. It is filed as cell-based.
Series [4] addresses Xanthine dehydrogenase/oxidase (Homo sapiens, UniProt P47989). Nature of the series: Inhibition of xanthine oxidase (unknown origin) at 10 uM using xanthine as substrate incubated for 15 mins relative to control. As to conditions: 0.25 h.

Structures are written as SMILES.

Sequence of Xanthine dehydrogenase/oxidase (P47989 whole entry): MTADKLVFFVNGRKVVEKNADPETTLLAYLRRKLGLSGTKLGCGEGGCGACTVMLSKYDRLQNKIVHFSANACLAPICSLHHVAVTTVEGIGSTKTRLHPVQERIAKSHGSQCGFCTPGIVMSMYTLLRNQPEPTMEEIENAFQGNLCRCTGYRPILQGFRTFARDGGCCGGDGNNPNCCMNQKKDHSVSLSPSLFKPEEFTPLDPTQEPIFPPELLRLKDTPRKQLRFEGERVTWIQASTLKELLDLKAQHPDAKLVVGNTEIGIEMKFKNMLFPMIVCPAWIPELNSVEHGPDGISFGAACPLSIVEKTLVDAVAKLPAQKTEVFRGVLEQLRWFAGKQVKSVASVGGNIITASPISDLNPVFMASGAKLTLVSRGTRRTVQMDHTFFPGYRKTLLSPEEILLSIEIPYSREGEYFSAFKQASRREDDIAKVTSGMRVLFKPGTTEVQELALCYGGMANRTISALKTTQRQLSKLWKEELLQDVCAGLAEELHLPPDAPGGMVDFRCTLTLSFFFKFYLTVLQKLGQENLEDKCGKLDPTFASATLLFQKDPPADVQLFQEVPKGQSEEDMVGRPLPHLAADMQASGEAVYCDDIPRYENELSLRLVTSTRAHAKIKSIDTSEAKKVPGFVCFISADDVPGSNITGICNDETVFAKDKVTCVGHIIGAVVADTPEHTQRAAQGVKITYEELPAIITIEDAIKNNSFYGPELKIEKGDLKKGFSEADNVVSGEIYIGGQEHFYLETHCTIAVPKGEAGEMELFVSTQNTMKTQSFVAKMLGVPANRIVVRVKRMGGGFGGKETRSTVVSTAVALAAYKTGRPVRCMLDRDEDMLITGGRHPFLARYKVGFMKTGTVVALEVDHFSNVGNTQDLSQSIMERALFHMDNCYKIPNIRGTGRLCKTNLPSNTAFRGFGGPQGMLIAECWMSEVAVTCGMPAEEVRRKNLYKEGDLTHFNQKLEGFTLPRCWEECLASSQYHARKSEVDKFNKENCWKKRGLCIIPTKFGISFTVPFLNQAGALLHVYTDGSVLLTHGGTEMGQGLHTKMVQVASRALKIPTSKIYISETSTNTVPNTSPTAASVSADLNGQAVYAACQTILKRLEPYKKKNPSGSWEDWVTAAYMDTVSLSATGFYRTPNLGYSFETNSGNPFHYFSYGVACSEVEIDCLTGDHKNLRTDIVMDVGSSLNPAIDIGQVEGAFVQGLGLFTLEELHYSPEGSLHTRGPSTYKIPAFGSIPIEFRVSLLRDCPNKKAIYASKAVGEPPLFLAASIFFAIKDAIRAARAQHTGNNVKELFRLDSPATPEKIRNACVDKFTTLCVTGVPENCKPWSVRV

A word on the inhibition: it is the percentage by which the read-out fell short of the control. Take `CCCCCCC[C@@H](CC1=C(/C=C/CCC/C=C\CO)C(=O)OC1=O)C1=C(C)C(=O)OC1=O`: in series [1], the inhibition worked out at 76%.
What is called IC50 is the concentration at which inhibition is half-maximal. Take `CCCCCC[C@H](O)[C@@H]1/C(C(=O)O)=C(/C(=O)O)C[C@H]([C@@H](O)[C@H]2CC=CC(=O)O2)CC2=C(C(=O)OC2=O)[C@H]1O`: the 50% inhibitory concentration (IC50) with RAW264.7 [2] is 1900 nM. In addition, the “growth inhibition (GI)” value in the series on RAW264.7 [3] is listed as -14.5%.
In series [4], `CCCCCC[C@H](O)[C@@H]1/C(C(=O)O)=C(/C(=O)O)C[C@H]([C@@H](O)[C@H](O)CCCC)CC2=C(C(=O)OC2=O)[C@H]1O` came in with an inhibition at 10 µM of 67%.
